Key:
[1] = Pharmacokinetic study of KVA-D-88 in mice; format: in vivo
WT C57/BL6 mice = format: in vivo
[2] = Brain and blood concentration of KVA-D-88 in mice; format: in vivo
PDE4D = PDE4D (Homo sapiens, UniProt Q08499); test: IC50 determination on PDE4 isoforms in vitro; format: binding; details: read-out: IC50 on PDE4D
[3] = tested on: cocaine self-administered mice; test: Cocaine self-administration in mice
PDE4B = PDE4B (Homo sapiens, UniProt Q07343); test: IC50 determination on PDE4 isoforms in vitro; format: binding; details: read-out: IC50 on PDE4B
[4] = tested on: Meth self-administered rats; details: cited from earlier work
alcohol intake = details: cited from earlier work; for alcohol intake: mice, without altering total fluid intake, alcohol-induced sedation or alcohol metabolism
cocaine reward = details: cited from earlier work
[5] = tested on: morphine-induced hyper-locomotor activity; details: cited from earlier work
[6] = tested on: heroin self-administration; details: cited from earlier work
[7] = tested on: alcohol self-administration; details: cited from earlier work
[8] = tested on: methamphetamine (Meth)-induced hyper-locomotor activity; details: cited from earlier work
[9] = FR1 schedule, 2 h, 5 and 2.5 mg/kg i.p. 30 min before, P < 0.05
[10] = FR3 schedule, 2 h session, 5 mg/kg, P < 0.05

Sequence of PDE4D (Q08499 whole entry, canonical isoform): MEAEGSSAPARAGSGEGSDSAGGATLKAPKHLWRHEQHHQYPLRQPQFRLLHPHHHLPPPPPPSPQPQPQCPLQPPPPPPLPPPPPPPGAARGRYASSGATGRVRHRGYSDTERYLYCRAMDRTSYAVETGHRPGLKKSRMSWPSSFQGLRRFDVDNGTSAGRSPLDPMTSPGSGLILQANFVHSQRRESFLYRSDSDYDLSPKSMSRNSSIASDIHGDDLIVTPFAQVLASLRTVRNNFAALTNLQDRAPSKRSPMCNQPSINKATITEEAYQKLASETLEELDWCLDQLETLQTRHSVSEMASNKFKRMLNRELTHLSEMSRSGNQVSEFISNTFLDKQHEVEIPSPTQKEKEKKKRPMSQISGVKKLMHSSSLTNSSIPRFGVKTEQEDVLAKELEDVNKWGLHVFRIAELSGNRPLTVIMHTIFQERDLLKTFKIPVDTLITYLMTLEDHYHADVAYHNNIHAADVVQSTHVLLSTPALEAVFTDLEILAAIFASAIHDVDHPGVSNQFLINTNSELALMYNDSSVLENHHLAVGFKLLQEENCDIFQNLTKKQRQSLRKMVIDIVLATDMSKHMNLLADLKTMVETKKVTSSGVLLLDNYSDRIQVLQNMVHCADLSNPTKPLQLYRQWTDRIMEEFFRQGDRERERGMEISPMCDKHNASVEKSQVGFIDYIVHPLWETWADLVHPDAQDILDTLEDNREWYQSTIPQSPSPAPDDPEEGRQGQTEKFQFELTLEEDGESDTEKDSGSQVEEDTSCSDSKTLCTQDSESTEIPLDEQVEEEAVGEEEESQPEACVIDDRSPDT
Sequence of PDE4B (Q07343 whole entry, canonical isoform): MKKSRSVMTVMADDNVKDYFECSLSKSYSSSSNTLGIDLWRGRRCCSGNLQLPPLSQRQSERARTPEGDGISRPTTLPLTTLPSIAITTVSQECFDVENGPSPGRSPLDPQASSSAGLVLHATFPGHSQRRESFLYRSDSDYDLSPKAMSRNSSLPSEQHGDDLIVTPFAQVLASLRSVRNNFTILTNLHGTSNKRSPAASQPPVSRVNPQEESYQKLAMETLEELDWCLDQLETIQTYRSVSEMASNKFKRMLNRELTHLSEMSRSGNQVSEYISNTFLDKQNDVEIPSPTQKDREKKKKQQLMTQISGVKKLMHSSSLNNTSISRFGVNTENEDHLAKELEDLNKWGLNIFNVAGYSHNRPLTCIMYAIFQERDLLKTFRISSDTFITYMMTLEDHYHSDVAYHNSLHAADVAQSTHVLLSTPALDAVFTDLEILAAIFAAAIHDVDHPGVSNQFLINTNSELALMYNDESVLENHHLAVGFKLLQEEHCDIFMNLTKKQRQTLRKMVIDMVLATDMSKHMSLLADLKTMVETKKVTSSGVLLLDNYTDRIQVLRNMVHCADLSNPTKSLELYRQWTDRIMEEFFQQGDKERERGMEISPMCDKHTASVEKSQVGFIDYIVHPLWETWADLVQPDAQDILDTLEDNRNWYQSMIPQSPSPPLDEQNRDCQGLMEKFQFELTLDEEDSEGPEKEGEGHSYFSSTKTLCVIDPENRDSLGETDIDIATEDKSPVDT

## O=C(c1cc2cccnc2n1-c1ccc(Cl)c(Cl)c1)N1CC(F)(F)C1 [KVA-D-88]
[1]; i.v. injection 1 mg/kg
  half-life (t1/2): 6.1 h
  mean residence time (MRT): 5.7 h
[1]; i.v. injection 1 mg/kg, plasma
  AUC from time zero to infinity (AUC∞): 1387.9 ng/mL
  AUC from time zero to the last measurable concentration (AUClast): 1382.9 ng/mL
  maximum plasma concentration (Cmax): 898.2 ng/mL
[1]; oral gavage 10 mg/kg
  AUC∞: 10825.9 ng/mL
  Cmax in the blood: 2150.5 ng/mL
  half-life (t1/2): 7.16 h
  mean residence time (MRT): 9 h
  time to reach maximum concentration in the blood (Tmax): 0.25 h
[1]; through either i.v. injection or p.o. approach
  half-life: 6 to 7 h
WT C57/BL6 mice; female mice, both testing doses (5 or 10 mg/kg i.p.), P < 0.05
  effect on cocaine-mediated hyper-locomotion: significantly blocked cocaine-mediated hyper-locomotion
WT C57/BL6 mice; mice, KVA-D-88 without cocaine
  effect on locomotor activity at basal levels: minimal effects
WT C57/BL6 mice; mice, daily pre-administration before cocaine for 7 consecutive days
  effect on cocaine-mediated locomotor sensitization: strikingly blocked cocaine-mediated locomotor sensitization
[2]; i.p. 10 mg/kg, 30 min later
  average concentration in the blood: 3899.2 ng/mL
  concentration ratio of brain: blood (Kp): approximately 0.6
[2]; i.p. 10 mg/kg, 30 min later, whole brain homogenates
  average concentration in the brain: 2347.7 ng/g
[2]; i.v. dosing as printed in the discussion
  concentration ratio (brain vs. plasma): 0.6
[2]; p.o. dosing (10 mg/kg)
  concentration ratio (brain vs. plasma): 1.2
PDE4D
  IC50: 880 nM
[3]; FR1 schedule, 5.0 mg/kg, P < 0.05
  rate of cocaine self-administration: strikingly reduced
[3]; [9]
  number of active nose-pokes: significantly decreased
  number of cocaine infusions: significantly decreased
[3]; [10]
  numbers of active nose-poke: significantly decreased
  numbers of cocaine infusions: significantly decreased
[3]; PR schedule, 3 h session, 5 mg/kg, P < 0.05
  break point: significantly decreased the numbers of break point
[3]; cocaine self-intake, comparison of effective doses
  fold stronger than apremilast on cocaine inhibition: ~10 fold
[3]; dose 0.5 mg/kg
  effect on cocaine self-intake (active nose poke), dose-response: no inhibitory effect
[3]; dose 1.0 mg/kg
  effect on cocaine self-intake (active nose poke), dose-response: no inhibitory effect
[3]; dose 2 mg/kg
  effect on cocaine self-intake (active nose poke), dose-response: showed the inhibitory effects but did not reached the significance
[3]; dose 4 mg/kg, P < 0.05
  effect on cocaine self-intake (active nose poke), dose-response: significant effects
PDE4B
  IC50: 140 nM

## COc1ccc(C2CNC(=O)C2)cc1OC1CCCC1 (stereo not shown) [rolipram]
[4]
  Meth-mediated seeking and consumption behaviors: effective in attenuating
Alcohol intake
  alcohol intake: reduced alcohol intake
Cocaine reward; mice
  cocaine-induced locomotor sensitization and conditional place preference: attenuated
Cocaine reward; open field test, CPP and self-administration
  cocaine reward, incentive saliency and seeking behavior: reduce cocaine reward, incentive saliency and seeking behavior
[5]
  morphine-induced hyper-locomotor activity and CPP: reduced
[6]; fixed ratio 1 (FR1)
  heroin self-administration: did not significantly inhibit
[6]; progressive ratio (PR) paradigm
  rewarding effects of heroin: decreased the rewarding effects
[7]
  2-bottle choice alcohol consumption and preference: decreased
  alcohol self-administration: dose-dependently reduced

## CCOc1cc([C@@H](CS(C)(=O)=O)N2C(=O)c3cccc(NC(C)=O)c3C2=O)ccc1OC [apremilast, reference compound]
Alcohol intake
  reward-related behavior induced by alcohol: decreasing the reward-related behavior induced by alcohol
[3]; dose 5 mg/kg
  effect on numbers of cocaine self-intake: did not decrease
[3]; dose 20 mg/kg
  effect on numbers of cocaine self-intake: significant its inhibitory effects

## CC(C)C(=O)c1c(C(C)C)nn2ccccc12 [ibudilast]
[4]; Meth self-administered rats
  drug seeking and intake behaviors: decreased drug seeking and intake behaviors
[4]
  Meth-mediated seeking and consumption behaviors: effective in attenuating
[8]
  Meth-induced hyper-locomotor activity and sensitization: reduced

## CC(N)C(=O)c1c(C(C)C)nn2ccccc12 (stereo not shown) [AV1013]
[8]
  Meth-induced hyper-locomotor activity and sensitization: reduced

## CCCCOc1cc(CC2CNC(=O)N2)ccc1OC (stereo not shown) [Ro 20-1724]
Alcohol intake
  alcohol intake: reduced alcohol intake
